Where a name gives a salt, the structure may show the parent alone.
Tests used:
E. coli (UT189) [1] = assay: Growth in sugars, culture tubes; format: cell-based
From the text: (§1) Results observed in microfluidic devices are illustrated in FIGS. 29A-F and 30A-E. The predicted growth as compared to devices and culture tubes are summarized in Table 2.

A. baumannii [2] = assay: Growth in sugars, culture tubes; format: cell-based; conditions: for Growth, Tube: A. baumannii, culture tubes
From the text: as §1

E. faecalis [3] = assay: Growth in sugars, culture tubes; format: cell-based
From the text: as §1

K. pneumoniae [4] = assay: Growth in sugars, culture tubes; format: cell-based
From the text: as §1

E. coli (UT189) [5] = conditions: cited from earlier work
E. faecalis [6] = conditions: cited from earlier work
E. coli (UT189) [7] = assay: Growth in sugars, microfluidic device (phenol red colour change); as to Growth, Device: key: + indicates growth; − indicates no growth; format: cell-based; conditions: for Growth, Device: E. coli (UT189), sugar 1% (w/v), LB with 0.05% phenol red pH 8.2; for growth in device chamber: E. coli (UT189)-1
Method: (§2) Self-loading microfluidic devices were prepared as described above. Reaction wells were filled with different sugar solutions including (1) cellbiose, (2) glycerol, (3) lactose, (4) mannitol, (5) mannose, (6) raffinose, (7) sucrose, (8) trehalose, (9) xylose, and (10) control (no sugar) (FIG. 28). The final concentration of the sugar in each chamber was 1% (w/v). After loading the sugar solutions, the liquid was evaporated as described above. The devices were then assembled and degassed by vacuum.
(§3) Cultures of A. baumannii-1, A. baumannii-2, K. pneumoniea-1, K. pneumoniea-2, S. aureus-1, S. aureus-2, E. coli (UT189), E. faecalis-1, E. faecalis-2, V. cholerae-1, and (11) V. cholerae-2 were grown for 15 hours in LB (pH 7.0). The cultures were then diluted at a ratio of 1:50 in LB containing 0.05% (w/v) phenol red (pH8.2) and added to individual devices using degas-driven flow. Growth of bacteria results in a pH change of the LB that causes a color change from red (illustrated in FIGS. 29 and 30 as filled chambers) to yellow (illustrated in FIGS. 29 and 30 as hatched chambers).

A. baumannii [8] = assay: as above; format: cell-based; conditions: for Growth, Device: A. baumannii, sugar 1% (w/v), LB with 0.05% phenol red pH 8.2
Method: as §2, §3

E. faecalis [9] = assay: as above; format: cell-based; conditions: E. faecalis-1 and E. faecalis-2; by 18 hours of incubation
Method: as §2, §3

K. pneumoniae [10] = assay: as above; format: cell-based; conditions: for Growth, Device: K. pneumoniae, sugar 1% (w/v), LB with 0.05% phenol red pH 8.2; for growth in device chamber: K. pneumoniea-1 and K. pneumoniea-2, by 4 hours of incubation
Method: as §2, §3

S. aureus [11] = conditions: cited from earlier work
S. aureus [12] = assay: Growth in sugars, culture tubes; format: cell-based; conditions: for Growth, Tube: culture tubes; as to Growth, Tube: key: + indicates growth; − indicates no growth
From the text: as §1

S. aureus [13] = assay: Growth in sugars, microfluidic device (phenol red colour change); as to Growth, Device: key: + indicates growth; − indicates no growth; format: cell-based; conditions: for Growth, Device: S. aureus, sugar 1% (w/v), LB with 0.05% phenol red pH 8.2
Method: as §2, §3

V. cholerae = assay: as above; format: cell-based; conditions: V. cholerae-1 and V. cholerae-2; by 4 hours of incubation
Method: as §2, §3

P. mirabilis (HI4320) [14] = assay: MIC measurement using the self-loading microfluidic device; format: cell-based; conditions: 18 h at 35° C., CAMBH pH 8.2 with 1% glucose and 0.05% phenol red, dilution series 0.5-1024 μg/mL
Method: (§4) Minor adjustments were made to procedures mimicking the CLSI guidelines to perform MIC measurements using microfluidic devices prepared as described above. Antibiotic stock solutions (10 mg/mL in sterile deionized water) of vancomycin hydrochloride, tetracycline hydrochloride, and kanamycin monosulfate were used to prepare a 1:10 dilution series. Appropriate amounts of these dilutions were added to sterile deionized water to create a two-fold dilution series that varied from 0.5-1024 μg/mL. Antibiotic solution (2.94 μL) was added to each chamber with the lowest antibiotic concentration located closest to the inlet port and the highest antibiotic concentration located in the chamber closest to the vacuum well. After antibiotic loading, the device was placed in a laminar flow hood to evaporate the liquid. After the liquid was evaporated, the device was assembled by placing the layer of PDMS forming the channel section over the chamber layer containing the dried antibiotic such that the channels connected the chambers. The assembled device was then placed under vacuum.
(§5) The standardized culture was then diluted 1:200 in CAMBH media, pH 8.2 supplemented with 1% glucose and 0.05% phenol red to provide a colorimetric change upon growth. The device was removed from the vacuum and 20 μL of cell suspension was pipetted onto the inlet port. […] Bacterial growth changed the pH of the liquid nutrient media containing the indicator phenol red, and produced a visible color change that was used to identify the cell growth in chambers.

K. pneumoniae [15] = assay: as above; format: cell-based; conditions: 18 h at 35° C., CAMBH pH 8.2 with 1% glucose and 0.05% phenol red, dilution series 0.5-1024 μg/mL
Method: as §4, §5

P. mirabilis (HI4320) [16] = assay: Off-chip MIC, broth dilution method according to CLSI protocols; format: cell-based; set-up: unit not given beside the values; conditions: CAMHB, 20 h at 35° C.
Method: (§6) Off-chip MIC assays using the broth dilution method according to CLSI protocols were performed as control experiments and to validate experimental data obtained with the microfluidic device.

[17] = tested on: kanamycin-resistant strain of E. coli MG1655; assay: Susceptibility to multiple antibiotics on a single microfluidic device using breakpoint values; format: cell-based; conditions: 18 h; vancomycin 2, 4, 8 μg/mL, tetracycline 0.5, 1, 2 μg/mL, kanamycin 1, 2, 4 μg/mL
From the text: In this Example, a single microfluidic device was used to simultaneously test the susceptibility of the kanamycin-resistant strain of E. coli MG1655 described above to multiple antibiotics using breakpoint values.
In clinical microbiology, a strain is classified as susceptible, intermediate, or resistant based on the relationship of the MIC of an antibiotic to specified ‘breakpoint’ values. Breakpoint values are set by organizations, such as the CLSI, and take into consideration MIC values of wild type strains, pharmacokinetic/pharmacodynamic data, and clinical outcomes. Breakpoint values are available for specific clinically relevant pairings of bacterial species and antibiotics and enable clinical decisions without knowing the exact MIC value.
Specifically, vancomycin, tetracycline, and kanamycin were added to the reaction wells of a single device. The most common breakpoints for vancomycin (susceptible <2 μg/mL, resistant >2 μg/mL), tetracycline (susceptible <1 μg/mL, intermediate=2 μg/mL, resistant >2 μg/mL), and gentamicin (susceptible <2 μg/mL, intermediate=4 μg/mL, resistant >4 μg/mL) were used. As there are no published breakpoints available for kanamycin, the breakpoint values for the structurally related aminoglycoside, gentamicin, against aerobic bacteria was used. A microfluidic device with ten chambers was prepared as described in Example 1 above. The ten chambers were divided into three chambers for each antibiotic vancomycin (2, 4, 8 μg/mL), tetracycline (0.5, 1, 2 μg/mL), and kanamycin (1, 2, 4 μg/mL) and one chamber for a control containing no antibiotic.

K. pneumoniae [18] = assay: Off-chip MIC, broth dilution method according to CLSI protocols; format: cell-based; conditions: CAMHB, 20 h at 35° C.
Method: as §6

[19] = S. aureus-1, by 8 hours of incubation
For Growth, Device in this document: key: + indicates growth; − indicates no growth.
For Growth, Predicted in this document: key: + indicates growth; − indicates no growth.

| Compound | Growth, Tube (E. coli (UT189) [1]) | Growth, Tube (A. baumannii [2]) | Growth, Tube (E. faecalis [3]) | Growth, Tube (K. pneumoniae [4]) | Growth, Predicted (E. coli (UT189) [5]) | Growth, Predicted (E. faecalis [6]) | Growth, Device (E. coli (UT189) [7]) | Growth, Device (A. baumannii [8]) | growth in device chamber (E. faecalis [9]) | Growth, Device (K. pneumoniae [10]) | Growth, Predicted (S. aureus [11]) | Growth, Tube (S. aureus [12]) | growth in device chamber (S. aureus [13]; [19]) | Growth, Device (S. aureus [13]) | growth in device chamber (K. pneumoniae [10]) | growth in device chamber (E. coli (UT189) [7]) | further results |
| --- | --- | --- | --- | --- | --- | --- | --- | --- | --- | --- | --- | --- | --- | --- | --- | --- | --- |
| OC[C@H]1O[C@@H](O[C@H]2[C@H](O)[C@@H](O)[C@@H](O)O[C@@H]2CO)[C@H](O)[C@@H](O)[C@@H]1O [Cellbiose, cellbiose] | − | − | + | + | − | + | − | − | grew | − | − |  |  |  |  |  |  |
| OCC(O)CO [Glycerol, glycerol] | − | − | + | + | + | + | − | − | grew | + | + | − | grew | + | grew |  | growth in culture tubes (S. aureus [12]): no growth was observed |
| OC[C@H]1O[C@@H](O[C@H]2[C@H](O)[C@@H](O)C(O)O[C@@H]2CO)[C@H](O)[C@@H](O)[C@H]1O (stereo partly shown) [Lactose, lactose] | + |  | + | − | + | + | + |  | grew | − | + | + | growth was not observed | − |  | grew | growth in device chamber (S. aureus [13]; S. aureus-2, by 18 hours of incubation): growth was not observed |
| OC[C@@H](O)[C@@H](O)[C@H](O)[C@H](O)CO [Mannitol, mannitol] | + |  | + | + | + | + | + |  | grew | + | + | + | grew | + | grew | grew |  |
| OC[C@H]1O[C@H](OC[C@H]2O[C@H](O[C@]3(CO)O[C@H](CO)[C@@H](O)[C@@H]3O)[C@H](O)[C@@H](O)[C@@H]2O)[C@H](O)[C@@H](O)[C@H]1O [Raffinose, raffinose] | − | − | − | + | − | − | − | − |  | + | − |  |  |  | grew |  |  |
| OC[C@H]1O[C@@](CO)(O[C@H]2O[C@H](CO)[C@@H](O)[C@H](O)[C@H]2O)[C@@H](O)[C@@H]1O [Sucrose, sucrose] | − |  | + | + | − | + | − |  | grew | + | + | + | grew | + | grew |  | growth in device chamber (V. cholerae): grew |
| OC[C@H]1O[C@H](O[C@H]2O[C@H](CO)[C@@H](O)[C@H](O)[C@H]2O)[C@H](O)[C@@H](O)[C@@H]1O [Trehalose, trehalose] | + |  | + | + | + | + | − |  | grew | + | + | + | grew | + | grew |  | growth in device chamber (V. cholerae): grew |
| O=C[C@H](O)[C@@H](O)[C@H](O)CO [Xylose, xylose] | + | − | − | + | + | − | − | + |  | − | − |  |  |  |  | grew | growth in culture tubes (A. baumannii [2]; A. baumannii-1 and A. baumannii-2): did not grow; growth in device chamber (A. baumannii [8]; A. baumannii-1 and A. baumannii-2, by 8 hours of incubation): grew |
| CN[C@H](CC(C)C)C(=O)N[C@H]1C(=O)N[C@@H](CC(N)=O)C(=O)N[C@H]2C(=O)N[C@H]3C(=O)N[C@H](C(=O)N[C@H](C(=O)O)c4cc(O)cc(O)c4-c4cc3ccc4O)[C@H](O)c3ccc(c(Cl)c3)Oc3cc2cc(c3O[C@@H]2O[C@H](CO)[C@@H](O)[C@H](O)[C@H]2O[C@H]2C[C@](C)(N)[C@H](O)[C@H](C)O2)Oc2ccc(cc2Cl)[C@H]1O [vancomycin, vancomycin hydrochloride] |  |  |  |  |  |  |  |  |  |  |  |  |  |  |  |  | MIC, Device (P. mirabilis (HI4320) [14]): >1024; MIC, Device (K. pneumoniae [15]): >1024; MIC, Broth (P. mirabilis (HI4320) [16]): >1024; effect on growth of the strain [17]: did not have any effect; MIC, Broth (K. pneumoniae [18]): >1024 |

— patent US9687845B2, “Self-loading microfluidic device and methods of use” (Wisconsin Alumni Research Foundation, priority 2011, dated 2017)
